Measured values reported in patent US20250115597A1, “TYK2 INHIBITORS AND COMPOSITIONS AND METHODS THEREOF” (LYNK PHARMACEUTICALS CO. LTD., priority 2021, published 2025).

Each compound was assayed against T1, Ba/F3-FL-TYK2-P760L cells (Homo sapiens, UniProt P29597, P760L, cells depend on it) (assay: Anti-proliferative assay, Ba/F3-FL-TYK2-P760L cells (Cell-Titer Glo)). Details: 72 h, read-out: BaF3-FL-T2P760L IC50.
T1 construct: BaF3-FL-T2P760L (nM)
Format: cell-based
Procedure: Anti-Proliferative Assay Dimerization domain of Tel protein fused with JAK kinase domain was permanently transduced into Ba/F3 cells, whose proliferation is dependent on JAK activity in the absence of IL-3 induction. These engineered Ba/F3 cells (Ba/F3-FL-TYK2-[…], Ba/F3-TEL-TYK2 and Ba/F3-TEL-JAK2) were used to monitor JAK inhibitory activities of the compounds in the cellular. […] Cells were seeded at 2000/well of white flat bottom 96-well plates. The well containing medium only was used as background control. After 24 h growth, cells were treated with compounds. The test compounds were dissolved in DMSO to a stock concentration of 20 mM. 3-fold serially diluted compounds for 9 concentrations with top concentration of 20 μM was added into the each well. […] The cells continued to grow at 37° C. in 5% CO2 for 72 h after compound treatment. The viability was measured by cellular ATP determination using the Cell-Titer Glo luciferase reagent (Promega). The Luminescence value was recorded by a multi-label reader Envision (PerkinElmer).

T1 sequence (P29597 whole entry P760L): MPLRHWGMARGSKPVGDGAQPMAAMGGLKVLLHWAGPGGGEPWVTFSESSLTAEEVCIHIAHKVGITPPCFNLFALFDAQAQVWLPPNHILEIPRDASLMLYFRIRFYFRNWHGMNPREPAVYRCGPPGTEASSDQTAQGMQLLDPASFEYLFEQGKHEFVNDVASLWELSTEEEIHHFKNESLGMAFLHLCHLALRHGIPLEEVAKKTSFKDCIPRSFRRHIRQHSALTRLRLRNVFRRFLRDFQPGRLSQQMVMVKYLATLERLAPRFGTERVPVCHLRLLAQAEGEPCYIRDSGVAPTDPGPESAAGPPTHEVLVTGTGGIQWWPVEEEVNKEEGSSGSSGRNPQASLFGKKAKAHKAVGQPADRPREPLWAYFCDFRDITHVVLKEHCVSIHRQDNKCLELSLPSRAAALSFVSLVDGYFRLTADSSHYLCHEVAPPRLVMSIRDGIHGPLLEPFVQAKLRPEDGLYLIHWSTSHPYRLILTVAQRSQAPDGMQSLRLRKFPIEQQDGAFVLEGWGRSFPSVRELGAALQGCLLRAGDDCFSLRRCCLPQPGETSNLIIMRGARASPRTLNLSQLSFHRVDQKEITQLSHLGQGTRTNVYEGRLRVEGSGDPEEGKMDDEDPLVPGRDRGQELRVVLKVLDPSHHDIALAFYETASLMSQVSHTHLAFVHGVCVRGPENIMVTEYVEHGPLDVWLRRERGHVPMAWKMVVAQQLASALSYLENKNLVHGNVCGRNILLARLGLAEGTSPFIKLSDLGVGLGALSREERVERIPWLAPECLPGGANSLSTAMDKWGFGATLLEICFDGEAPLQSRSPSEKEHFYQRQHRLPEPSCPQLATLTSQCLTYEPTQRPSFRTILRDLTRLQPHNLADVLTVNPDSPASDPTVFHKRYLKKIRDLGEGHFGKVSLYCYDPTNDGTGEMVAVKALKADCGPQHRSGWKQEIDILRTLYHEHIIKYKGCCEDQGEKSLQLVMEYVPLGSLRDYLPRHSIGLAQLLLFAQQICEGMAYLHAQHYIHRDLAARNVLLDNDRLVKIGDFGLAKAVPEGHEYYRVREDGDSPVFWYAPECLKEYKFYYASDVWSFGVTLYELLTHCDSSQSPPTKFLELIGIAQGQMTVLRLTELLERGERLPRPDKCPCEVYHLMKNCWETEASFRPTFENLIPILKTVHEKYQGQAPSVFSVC

Row | GI50 [nM] | SMILES
1 | 1100 | [2H]C([2H])([2H])NC(=O)c1cnc(NC(=O)C2CC2)cc1Nc1cn(C)c2ccn([C@H]3CCOC3)c(=O)c12 [Example 115, 6-(Cyclopropanecarbonylamino)-4-[[1-methyl-4-oxo-5-[(3S)-tetrahydrofuran-3-yl]pyrrolo[3,2-c]pyridin-3-yl]amino]-N-(methyl-d3)pyridine-3-carboxamide]
2 | 807 | [2H]C([2H])([2H])NC(=O)c1cnc(NC(=O)[C@@H]2C[C@@H]2F)cc1Nc1cn(C)c2ccn(CC)c(=O)c12 [Example 102, 4-[(5-Ethyl-1-methyl-4-oxo-pyrrolo[3,2-c]pyridin-3-yl)amino]-6-[[(1S,2S)-2-fluorocyclopropanecarbonyl]amino]-N-(methyl-d3)pyridine-3-carboxamide]
3 | 32.2 | [2H]C([2H])([2H])NC(=O)c1cnc2cc1Nc1cc(cc(-c3ncn(C4CC4)n3)c1OC)COCc1cc(F)cc(n1)N2 [Example 89, 11-(1-Cyclopropyl-1H-1,2,4-triazol-3-yl)-19-fluoro-10-methoxy-N-(methyl-d3)-15-oxa-2,4,8,21-tetraazatetracyclo[15.3.1.1^{3,7}.1^{9,13}]tricosa-1(21),3,5,7(23),9(22),10,12,17,19-nonaene-6-carboxamide]
4 | 6410 | CNC(=O)c1cnc(NC(=O)C2CC2)cc1Nc1cccc(OC2CCOCC2)c1OC [Example 13, 6-(Cyclopropanecarboxamido)-4-((2-methoxy-3-((tetrahydro-2H-pyran-4-yl)oxy)phenyl)amino)-N-methylnicotinamide]
5 | 96.2 | CNC(=O)c1cnc(NC(=O)C2CC2)cc1Nc1cn(C)c2ncn([C@H](C)C(F)(F)F)c(=O)c12 (single isomer, unassigned) [Example 234A, (R*)-6-(cyclopropanecarboxamido)-N-(methyl-d3)-4-((7-methyl-4-oxo-3-(1,1,1-trifluoropropan-2-yl)-4,7-dihydro-3H-pyrrolo[2,3-d]pyrimidin-5-yl)amino)nicotinamide]
6 | > 5000 | [2H]C([2H])([2H])NC(=O)c1cnc(NC(=O)C2(C(F)(F)F)CC2)cc1Nc1ccc2cnn(CC)c2c1OC [Example 238, 4-((1-Ethyl-7-methoxy-1H-indazol-6-yl)amino)-N-(methyl-d3)-6-(1-(trifluoromethyl)cyclopropane-1-carboxamido)nicotinamide]
7 | 477 | [2H]C([2H])([2H])NC(=O)c1cnc(NC(=O)C2CC2)cc1Nc1cn(C)c2ccn(CCOC)c(=O)c12 [Example 112, 6-(Cyclopropanecarboxamido)-4-((5-(2-methoxyethyl)-1-methyl-4-oxo-4,5-dihydro-1H-pyrrolo[3,2-c]pyridin-3-yl)amino)-N-(methyl-d3)nicotinamide]
8 | 740 | CCn1ccc2c(c(Nc3nc(Nc4ccc(F)cc4F)ncc3C(=O)NC)cn2C)c1=O [Example 9, 2-((2,4-Difluorophenyl)amino)-4-((5-ethyl-1-methyl-4-oxo-4,5-dihydro-1H-pyrrolo[3,2-c]pyridin-3-yl)amino)-N-methylpyrimidine-5-carboxamide]
9 | 736 | [2H]C([2H])([2H])NC(=O)c1cnc(NC(=O)[C@H]2C[C@@H](C#N)C2)cc1Nc1ccc2cnn(CC)c2c1OC [Example 128A, 6-((Cis)-3-cyanocyclobutane-1-carboxamido)-4-((1-ethyl-7-methoxy-1H-indazol-6-yl)amino)-N-(methyl-d3)nicotinamide]
10 | 934 | CCn1cc(Nc2cc(NC(=O)C3CC3)ncc2C(=O)NC)c2c(=O)n([C@@H](C)C(F)(F)F)cnc21 (single isomer, unassigned) [Example 254B, (S*)-6-(cyclopropanecarboxamido)-4-((7-ethyl-4-oxo-3-(1,1,1-trifluoropropan-2-yl)-4,7-dihydro-3H-pyrrolo[2,3-d]pyrimidin-5-yl)amino)-N-(methyl-d3)nicotinamide]
11 | 309 | COC(=O)c1cnc(NC(=O)C2CC2)cc1Nc1csc2c(C#N)cn(C)c(=O)c12 [Example 186, Methyl 4-((7-cyano-5-methyl-4-oxo-4,5-dihydrothieno[3,2-c]pyridin-3-yl)amino)-6-(cyclopropanecarboxamido)nicotinate]
12 | 2900 | CNC(=O)c1cnc(NC(=O)C2CC2)cc1Nc1ccc2nn3c(c2c1OC)CCC3 [Example 156, 6-(Cyclopropanecarboxamido)-4-((9-methoxy-2,3-dihydro-1H-pyrrolo[1,2-b]indazol-8-yl)amino)-N-methylnicotinamide]
13 | 1090 | [2H]C([2H])([2H])NC(=O)c1cnc(NC(=O)C2CC2)cc1Nc1nn(CCOC)c2ccn(CC(F)(F)F)c(=O)c12 [Example 54, 6-(Cyclopropanecarboxamido)-4-((1-(2-methoxyethyl)-4-oxo-5-(2,2,2-trifluoroethyl)-4,5-dihydro-1H-pyrazolo[4,3-c]pyridin-3-yl)amino)-N-(methyl-d3)nicotinamide]
14 | 3510 | [2H]C([2H])([2H])NC(=O)c1cnc(Nc2ccc(C)nn2)nc1Nc1cccc(-c2ncn(C)n2)c1OC [Example 61, 4-((2-Methoxy-3-(1-methyl-1H-1,2,4-triazol-3-yl)phenyl)amino)-N-(methyl-d3)-2-((6-methylpyridazin-3-yl)amino)pyrimidine-5-carboxamide]
15 | 327 | CCN1C(=O)C(F)(F)c2ccc(Nc3cc(NC(=O)C4CC4)ncc3C(=O)NC)c(OC)c21 [Example 204, 6-(Cyclopropanecarboxamido)-4-((1-ethyl-3,3-difluoro-7-methoxy-2-oxoindolin-6-yl)amino)-N-methylnicotinamide]
16 | 82.4 | [2H]C([2H])([2H])NC(=O)c1cnc(NC(=O)C2CC2)cc1Nc1ccc2cnn(C([2H])([2H])[2H])c2c1OC [Example 140, 6-(Cyclopropanecarboxamido)-4-((7-methoxy-1-(methyl-d3)-1H-indazol-6-yl)amino)-N-(methyl-d3)nicotinamide]
17 | 97 | [2H]C([2H])([2H])NC(=O)c1nnc2cc1Nc1cc(cc(-c3nc(C)co3)c1OC)COCc1nc(ccc1F)N2 [Example 93, 18-Fluoro-10-methoxy-N-(methyl-d3)-11-(4-methyl-1,3-oxazol-2-yl)-15-oxa-2,4,5,8,21-pentaazatetracyclo[15.3.1.1^{3,7}.1^{9,13}]tricosa-1(20),3,5,7(23),9(22),10,12,17(21),18-nonaene-6-carboxamide]
18 | 584 | [2H]C([2H])([2H])NC(=O)c1nnc2cc1Nc1cc(cc(-c3ncn(C)n3)c1OC)CNCc1nc(ccc1F)N2 [Example 87, 18-Fluoro-10-methoxy-N-(methyl-d3)-11-(1-methyl-1H-1,2,4-triazol-3-yl)-2,4,5,8,15,21-hexaazatetracyclo[15.3.1.1^{3,7}.1^{9,13}]tricosa-1(20),3,5,7(23),9(22),10,12,17(21),18-nonaene-6-carboxamide]
19 | 541 | [2H]C([2H])([2H])NC(=O)c1cnc(NC(=O)C2CC2)cc1Nc1ccn2ncc(C([2H])([2H])[2H])c2c1OC [Example 220, 6-(Cyclopropanecarboxamido)-4-((4-methoxy-3-(methyl-d3)pyrazolo[1,5-a]pyridin-5-yl)amino)-N-(methyl-d3)nicotinamide]
20 | 8020 | CNC(=O)c1cnc(NC(=O)C2CC2)nc1Nc1cccc(OC2CCOCC2)c1OC [Example 7, 2-(Cyclopropanecarboxamido)-4-((2-methoxy-3-((tetrahydro-2H-pyran-4-yl)oxy)phenyl)amino)-N-methylpyrimidine-5-carboxamide]
21 | 1350 | [2H]C([2H])([2H])NC(=O)c1cnc(NC(=O)C2CC2)cc1Nc1csc2cnn(C(C)CC)c(=O)c12 (centres unmarked) [Example 180, 4-((5-(Sec-butyl)-4-oxo-4,5-dihydrothieno[2,3-d]pyridazin-3-yl)amino)-6-(cyclopropanecarboxamido)-N-(methyl-d3)nicotinamide]
22 | 988 | CNC(=O)c1cnc2nc1Nc1cc(cc(-c3ncn(C)n3)c1OC)COCc1cc(cc(C(F)(F)F)c1)N2 [Example 37, 10-Methoxy-N-methyl-11-(1-methyl-1H-1,2,4-triazol-3-yl)-19-(trifluoromethyl)-15-oxa-2,4,8,23-tetraazatetracyclo[15.3.1.1^{3,7}.1^{9,13}]tricosa-1(20),3,5,7(23),9(22),10,12,17(21),18-nonaene-6-carboxamide]
23 | 809 | [2H]C([2H])([2H])NC(=O)c1cnc(NC(=O)[C@H]2C[C@H]2F)cc1Nc1cn(C)c2ccn(CC)c(=O)c12 [Example 101, 4-[(5-Ethyl-1-methyl-4-oxo-pyrrolo[3,2-c]pyridin-3-yl)amino]-6-[[(1R,2R)-2-fluorocyclopropanecarbonyl]amino]-N-(methyl-d3)pyridine-3-carboxamide]
24 | 1060 | [2H]C([2H])([2H])NC(=O)c1cnc(NC(=O)C2CC2)cc1Nc1cn(C)c2ccn(-c3ccn(C)n3)c(=O)c12 [Example 118, 6-(Cyclopropanecarbonylamino)-4-[[1-methyl-5-(1-methylpyrazol-3-yl)-4-oxo-pyrrolo[3,2-c]pyridin-3-yl]amino]-N-(methyl-d3)pyridine-3-carboxamide]
25 | 627 | CNC(=O)c1cnc(Nc2ccc(F)cn2)cc1Nc1cccc(C(F)(F)F)c1OC [Example 55, 6-((5-Fluoropyridin-2-yl)amino)-4-((2-methoxy-3-(trifluoromethyl)phenyl)amino)-N-methylnicotinamide]
26 | > 5000 | CCc1nc2c(Nc3cc(NC(=O)C4CC4)ncc3C(=O)NC)cn(C)c2c(=O)n1C [Example 247, 6-(Cyclopropanecarboxamido)-4-((2-ethyl-3,5-dimethyl-4-oxo-4,5-dihydro-3H-pyrrolo[3,2-d]pyrimidin-7-yl)amino)-N-methylnicotinamide]
